# Target: T1, human Nav1.7 (hNav1.7) (Homo sapiens, UniProt Q15858)
# T1 construct: expressed in transfected cells
# Test: hNav1.7 whole-cell patch-clamp electrophysiology (automated PatchXpress 7000A or manual) in stably expressing 293 cells
# Type: cell-based
# Conditions: average IC50
# Description: Compounds were tested on human Nav1.7 (hNav1.7) expressed stably in 293 cells, which have no endogenous sodium channels. Two forms of whole-cell patch-clamp assays were used. In both, peak current through Nav1.7 was evoked by a depolarizing voltage pulse, and currents were monitored as a function of time in response to exposure to several different concentrations of drug. Automated electrophysiology uses the PatchXpress 7000A system. Up to sixteen cells at a time were voltage-clamped in parallel, and the steady-state voltage dependence of inactivation was determined experimentally for each cell. For each cell, fractional inactivation was set at 20%, and peak current through Nav1.7 as a function of time was measured in response to increasing concentrations of test compound. Manual electrophysiology refers to conventional whole-cell patch-clamping (Hamill et al., 1981). After formation of the whole-cell clamp, cells were lifted off the bottom of the dish with the patch pipette and positioned directly in front of an array of glass microperfusion tubes each with internal diameter about 250 microns, with individual compound concentrations flowing from each tube. Current as a function of time in response to increasing drug concentrations was measured with Nav1.7 fully in the resting state (holding voltage set to −140 mV) and on the same cells with the holding voltage set to produce about 20% inactivation. Compounds were not applied for a prespecified time, but for as long as required to achieve a stable level of block. For both forms of electrophysiology, offline analysis was used to correct for rundown of channel current and to determine percent inhibition as a function of drug concentration. IC50 were determined by fitting to the Hill equation.
# T1 sequence (Q15858 whole entry): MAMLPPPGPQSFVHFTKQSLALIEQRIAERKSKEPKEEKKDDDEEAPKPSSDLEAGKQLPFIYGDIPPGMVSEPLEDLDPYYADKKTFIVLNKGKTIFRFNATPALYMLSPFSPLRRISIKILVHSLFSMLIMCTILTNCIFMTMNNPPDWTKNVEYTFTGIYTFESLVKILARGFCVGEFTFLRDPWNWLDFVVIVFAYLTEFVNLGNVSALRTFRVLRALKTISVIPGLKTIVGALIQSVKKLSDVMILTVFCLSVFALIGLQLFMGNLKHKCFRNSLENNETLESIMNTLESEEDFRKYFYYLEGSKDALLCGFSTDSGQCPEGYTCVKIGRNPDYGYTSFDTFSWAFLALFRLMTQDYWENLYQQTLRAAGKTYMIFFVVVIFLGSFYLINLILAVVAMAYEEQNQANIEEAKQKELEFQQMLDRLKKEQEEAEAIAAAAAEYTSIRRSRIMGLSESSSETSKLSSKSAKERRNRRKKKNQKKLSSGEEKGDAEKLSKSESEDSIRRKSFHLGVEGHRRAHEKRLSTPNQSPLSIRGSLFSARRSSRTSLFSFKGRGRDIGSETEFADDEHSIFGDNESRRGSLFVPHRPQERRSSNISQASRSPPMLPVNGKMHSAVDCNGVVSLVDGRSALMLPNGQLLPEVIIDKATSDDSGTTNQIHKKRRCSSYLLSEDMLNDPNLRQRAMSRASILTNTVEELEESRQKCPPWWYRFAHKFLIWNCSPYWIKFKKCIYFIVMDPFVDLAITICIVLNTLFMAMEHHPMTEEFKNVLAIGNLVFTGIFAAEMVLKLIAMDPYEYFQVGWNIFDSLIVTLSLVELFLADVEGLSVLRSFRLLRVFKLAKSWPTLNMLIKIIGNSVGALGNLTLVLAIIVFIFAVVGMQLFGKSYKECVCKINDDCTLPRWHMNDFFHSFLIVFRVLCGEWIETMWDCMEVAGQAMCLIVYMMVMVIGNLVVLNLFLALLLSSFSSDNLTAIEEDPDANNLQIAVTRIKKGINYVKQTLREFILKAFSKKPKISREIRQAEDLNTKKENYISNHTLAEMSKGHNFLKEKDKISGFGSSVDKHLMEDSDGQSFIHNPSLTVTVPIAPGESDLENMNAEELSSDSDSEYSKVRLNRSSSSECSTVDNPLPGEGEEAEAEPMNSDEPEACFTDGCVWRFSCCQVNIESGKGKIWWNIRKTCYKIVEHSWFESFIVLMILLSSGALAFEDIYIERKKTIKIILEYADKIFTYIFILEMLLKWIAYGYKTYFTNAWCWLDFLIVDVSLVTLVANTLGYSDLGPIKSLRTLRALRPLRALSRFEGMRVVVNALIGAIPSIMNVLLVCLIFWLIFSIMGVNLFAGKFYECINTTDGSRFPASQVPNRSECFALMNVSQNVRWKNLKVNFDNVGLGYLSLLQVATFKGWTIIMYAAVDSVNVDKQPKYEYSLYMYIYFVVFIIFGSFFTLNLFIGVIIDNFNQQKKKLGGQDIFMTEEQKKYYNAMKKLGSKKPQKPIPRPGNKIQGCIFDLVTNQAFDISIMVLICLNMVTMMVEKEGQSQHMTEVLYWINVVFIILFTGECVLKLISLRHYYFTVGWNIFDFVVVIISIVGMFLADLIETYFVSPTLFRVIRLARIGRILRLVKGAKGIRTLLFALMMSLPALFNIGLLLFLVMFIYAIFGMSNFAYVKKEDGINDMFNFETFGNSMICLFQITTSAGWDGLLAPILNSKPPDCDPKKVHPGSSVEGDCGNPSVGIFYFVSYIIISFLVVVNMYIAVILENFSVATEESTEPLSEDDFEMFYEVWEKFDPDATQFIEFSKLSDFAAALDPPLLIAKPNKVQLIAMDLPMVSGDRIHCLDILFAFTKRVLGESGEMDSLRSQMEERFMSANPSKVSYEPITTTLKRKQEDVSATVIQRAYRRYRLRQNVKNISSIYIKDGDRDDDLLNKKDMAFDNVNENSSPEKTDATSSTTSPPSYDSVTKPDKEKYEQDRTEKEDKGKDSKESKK
row,Structure (SMILES),IC50
1,CNC(=O)c1cccc(Nc2ncnc(NCc3noc(C(=O)NC4CC4)n3)n2)c1 [Example 289],> 30 µM
2,CNC(=O)c1cccc(Nc2ncnc(N3CCc4cc(C#N)ccc4C3)n2)c1 [Example 299],> 30 µM
3,NC(=O)c1cc(Nc2ncnc(N3CC(Oc4ccc(F)cc4)C3)n2)ccc1F [Example 291],> 30 µM
4,CNC(=O)c1cccc(Nc2ncnc(N3CC(Oc4ccccc4C#N)C3)n2)c1 [Example 297],> 30 µM
5,CNC(=O)c1cccc(Nc2ncnc(N3CCc4c(cnn4-c4ccccc4)C3)n2)c1 [Example 268],20.9 µM

# Other lines, results leading:
row,IC50,Structure (SMILES)
1,26 µM,CNC(=O)c1cccc(Nc2ncnc(N3CCCC(Oc4cccc(Cl)c4)C3)n2)c1 (centres unmarked) [Example 278]
2,> 30 µM,CNC(=O)c1cccc(Nc2ncnc(N3CCC(OCC(C)C)CC3)n2)c1 [Example 296]
3,25.4 µM,CNC(=O)c1cccc(Nc2ncnc(N3CCC(OCc4cccc(OC(F)(F)F)c4)CC3)n2)c1 [Example 277]

# Same assay, conditions: average IC50, human Nav1.7
row,Structure (SMILES),IC50
1,CNC(=O)c1cccc(Nc2ncnc(N3CC(COCc4ccc(C(F)(F)F)cc4)C3)n2)c1 [Example 189],5.56 µM
2,CNC(=O)c1cccc(Nc2ncnc(NCCCOc3cccc(F)c3)n2)c1 [Example 260],17.6 µM
3,CNC(=O)c1cccc(Nc2ncnc(N3CC(COCc4ccc(Cl)cc4)C3)n2)c1 [Example 241],11.1 µM
4,CNC(=O)c1cccc(Nc2ncnc(N3CC(COc4ccc(Cl)cc4C)C3)n2)c1 [Example 73],0.9 µM
5,CNC(=O)c1cccc(Nc2ncnc(N3CCCN(Cc4ccccc4)CC3)n2)c1 [Example 203],7.42 µM
6,NC(=O)c1cccc(Nc2ncnc(N3CCc4ccccc4C3)n2)c1 [Example 235],10.3 µM
7,CNC(=O)c1cccc(Nc2ncnc(N3CCc4c(cccc4OCCOC)C3)n2)c1 [Example 252],15 µM
8,CNC(=O)c1cccc(Nc2ncnc(N3CCC3COc3ccc(Cl)cc3)n2)c1 (centres unmarked) [Example 211],8.3 µM
9,CNC(=O)c1cccc(Nc2ccnc(N3CC(COc4ccc(Cl)cc4)C3)n2)c1 [Example 197],6.8 µM
10,CNC(=O)c1cccc(Nc2ncnc(N3CC(COc4cccc(OC)c4)C3)n2)c1 [Example 244],12 µM
11,CNC(=O)c1cccc(Nc2ncnc(N3CCc4c(C#N)cccc4C3)n2)c1 [Example 72],0.9 µM
12,CNC(=O)c1cccc(Nc2ncnc(N3CC(Oc4cc(Cl)ccc4Cl)C3)n2)c1 [Example 18],0.31 µM
13,CNC(=O)c1cc(Nc2ncnc(N3CC(Oc4ccc(Cl)cc4)C3)n2)ccc1N(C)C [Example 50],0.65 µM
14,CNC(=O)c1cccc(Nc2ncnc(N3CC(COc4ccc(C#N)cc4)C3)n2)c1 [Example 258],16.9 µM
15,CNC(=O)c1cc(Nc2ncnc(N3CC(COc4ccc(Cl)cc4)C3)n2)ccc1F [Example 70],0.89 µM
16,CNC(=O)c1cc(Nc2ncnc(N3CC(Oc4ccc(Cl)cc4F)C3)n2)ccc1Cl [Example 79],1 µM
17,CNC(=O)c1cccc(Nc2ncnc(N3CC(Oc4ccc(Cl)cc4Cl)C3)n2)c1 [Example 51],0.65 µM
18,CNC(=O)c1cccc(Nc2ncnc(N3CCN(c4ccc(Cl)cn4)CC3)n2)c1 [Example 108],1.61 µM
19,CNC(=O)c1cccc(Nc2ncnc(N3CCc4c(cnn4-c4ccc(Cl)cc4)C3)n2)c1 [Example 144],2.87 µM

# The remaining lines, values ahead:
row,IC50,Structure (SMILES)
1,10.8 µM,CNC(=O)c1cccc(Nc2ncnc(N3CCC(Oc4ccccc4F)CC3)n2)c1 [Example 238]
2,0.72 µM,CNC(=O)c1cccc(Nc2ncnc(N3CC(Oc4ccc(F)cc4Cl)C3)n2)c1 [Example 54]
3,0.33 µM,CNC(=O)c1cccc(Nc2ncnc(N3CC(Oc4ccc(Cl)cc4F)C3)n2)c1 [Example 21]
4,0.47 µM,CNC(=O)c1cccc(Nc2ncnc(N3CC(Oc4ccc(C(F)(F)F)cc4)C3)n2)c1 [Example 35]
5,0.76 µM,CNC(=O)c1cc(Nc2ncnc(N3CC(Oc4ccc(F)cc4)C3)n2)ccc1F [Example 57]
6,3.65 µM,CNC(=O)c1ccc(C)c(Nc2ncnc(N3CC(Oc4ccc(F)cc4)C3)n2)c1 [Example 160]
7,1.4 µM,CNC(=O)c1cc(Nc2ncnc(N3CC(Oc4ccc(F)c(Cl)c4)C3)n2)ccc1Cl [Example 97]
8,2.49 µM,CNC(=O)c1cccc(Nc2ncnc(N3CCC(OCc4ccc(OC(F)(F)F)cc4)CC3)n2)c1 [Example 131]
9,1.39 µM,CNC(=O)c1cc(Nc2ncnc(N3CC(COc4ccc(C(F)(F)F)cc4)C3)n2)ccc1Cl [Example 96]
10,0.45 µM,CNC(=O)c1cccc(Nc2ncnc(N3CC(Oc4ccccc4)C3)n2)c1 [Example 33]
11,0.38 µM,CNC(=O)c1cccc(Nc2ncnc(N3CCC(c4nc(-c5ccccc5)cs4)CC3)n2)c1 [Example 24]
12,7.98 µM,CNC(=O)c1cccc(Nc2ncnc(N3CC(Oc4ccc(CC#N)cc4)C3)n2)c1 [Example 207]
13,4.78 µM,CNC(=O)c1cccc(Nc2ncnc(N3CCN(c4ccccc4C(F)(F)F)CC3)n2)c1 [Example 178]
14,2.91 µM,CNC(=O)c1cc(F)cc(Nc2ncnc(N3CCC(Oc4ccc(OC(F)(F)F)cc4)CC3)n2)c1 [Example 146]
15,1.3 µM,CNC(=O)c1cccc(Nc2ncnc(N3CCC(COc4ccc(F)c(F)c4)CC3)n2)c1 [Example 93]
16,2.37 µM,CNC(=O)c1ccc(Cl)c(Nc2ncnc(N3CC(Oc4ccc(F)cc4)C3)n2)c1 [Example 129]
17,1.69 µM,CNC(=O)c1cccc(Nc2ncnc(N3CC(Oc4cccc(OC(F)(F)F)c4)C3)n2)c1 [Example 111]
18,4.22 µM,CNC(=O)c1cccc(Nc2ncnc(N3CCC(c4nc(-c5ccccc5)c(C)s4)CC3)n2)c1 [Example 168]
19,3.82 µM,CNC(=O)c1ccc(F)c(Nc2ncnc(N3CC(Oc4ccc(F)cc4)C3)n2)c1 [Example 165]
20,0.84 µM,CNC(=O)c1cccc(Nc2ncnc(N3CCC(c4ccccc4)CC3)n2)c1 [Example 65]
21,1.08 µM,CNC(=O)c1cccc(Nc2ncnc(N3CCC(Oc4ccc(Cl)c(F)c4)CC3)n2)c1 [Example 84]
22,0.83 µM,CNC(=O)c1cc(Nc2ncnc(NCCCOc3ccc(OC(F)(F)F)cc3)n2)ccc1F [Example 64]
23,2.95 µM,CNC(=O)c1cccc(Nc2ncnc(N3CC(Oc4ccc(F)cc4F)C3)n2)c1 [Example 148]
24,2.31 µM,CNC(=O)c1cccc(Nc2ncnc(N3CC(Oc4ccc(C#N)c(Cl)c4)C3)n2)c1 [Example 128]
25,6.4 µM,CNC(=O)c1cccc(Nc2ncnc(N3CCC(Cc4ccc(F)cc4)CC3)n2)c1 [Example 196]

# Same assay, conditions: human Nav1.7 stably expressed in 293 cells; whole-cell patch clamp; average IC50 from Hill fit
row,Structure (SMILES),IC50
1,"CNC(=O)c1cccc(Nc2nccc(N3CC(COc4ccc(Cl)cc4)C3)n2)c1 [Example O, 3-((4-(3-((4-chlorophenoxy)methyl)-1-azetidinyl)-2-pyrimidinyl)amino)-N-methylbenzamide]",2.55 µM
2,"CNC(=O)c1cccc(Nc2nccc(N3CC(Oc4ccc(Cl)c(C)c4)C3)n2)c1 [Example L, 3-((4-(3-(4-chloro-3-methylphenoxy)-1-azetidinyl)-2-pyrimidinyl)amino)-N-methylbenzamide]",0.31 µM
3,"CNC(=O)c1cccc(Nc2nccc(N3CC(Oc4ccc(F)cc4F)C3)n2)c1 [Example H, 3-((4-(3-(2,4-difluorophenoxy)-1-azetidinyl)-2-pyrimidinyl)amino)-N-methylbenzamide]",2.16 µM
4,"CNC(=O)c1cccc(Nc2nccc(N3CC(Oc4ccc(F)c(C)c4)C3)n2)c1 [Example G, 3-((4-(3-(4-fluoro-3-methylphenoxy)-1-azetidinyl)-2-pyrimidinyl)amino)-N-methylbenzamide]",1.41 µM

# Reference: US9334269B2, “Carboxamides as inhibitors of voltage-gated sodium channels” (AMGEN INC., priority 2010, dated 2016)
